The record followed here is ChEMBL document CHEMBL4304788, “Treatment of Cancer and Alzheimer's Disease by PROTAC Degradation of EGFR” (ACS Med Chem Lett, 2019).

Molecules are shown by their SMILES. pEC50: −log10 of the molar value.

For this experiment, the target named is Protein cereblon/Epidermal growth factor receptor (Homo sapiens, UniProt P00533+Q96SW2, L858R/T790M). Kind of experiment: Protac activity at native cereblon/EGFR T790M/L858R mutant (unknown origin) transfected in mouse Baf3 cells assessed as reduction in cell proliferation by MTS assay. It is filed as cell-based.
Chain of Protein cereblon/Epidermal growth factor receptor (P00533 25-1210 T790M/L858R limits assumed, stated change not applied): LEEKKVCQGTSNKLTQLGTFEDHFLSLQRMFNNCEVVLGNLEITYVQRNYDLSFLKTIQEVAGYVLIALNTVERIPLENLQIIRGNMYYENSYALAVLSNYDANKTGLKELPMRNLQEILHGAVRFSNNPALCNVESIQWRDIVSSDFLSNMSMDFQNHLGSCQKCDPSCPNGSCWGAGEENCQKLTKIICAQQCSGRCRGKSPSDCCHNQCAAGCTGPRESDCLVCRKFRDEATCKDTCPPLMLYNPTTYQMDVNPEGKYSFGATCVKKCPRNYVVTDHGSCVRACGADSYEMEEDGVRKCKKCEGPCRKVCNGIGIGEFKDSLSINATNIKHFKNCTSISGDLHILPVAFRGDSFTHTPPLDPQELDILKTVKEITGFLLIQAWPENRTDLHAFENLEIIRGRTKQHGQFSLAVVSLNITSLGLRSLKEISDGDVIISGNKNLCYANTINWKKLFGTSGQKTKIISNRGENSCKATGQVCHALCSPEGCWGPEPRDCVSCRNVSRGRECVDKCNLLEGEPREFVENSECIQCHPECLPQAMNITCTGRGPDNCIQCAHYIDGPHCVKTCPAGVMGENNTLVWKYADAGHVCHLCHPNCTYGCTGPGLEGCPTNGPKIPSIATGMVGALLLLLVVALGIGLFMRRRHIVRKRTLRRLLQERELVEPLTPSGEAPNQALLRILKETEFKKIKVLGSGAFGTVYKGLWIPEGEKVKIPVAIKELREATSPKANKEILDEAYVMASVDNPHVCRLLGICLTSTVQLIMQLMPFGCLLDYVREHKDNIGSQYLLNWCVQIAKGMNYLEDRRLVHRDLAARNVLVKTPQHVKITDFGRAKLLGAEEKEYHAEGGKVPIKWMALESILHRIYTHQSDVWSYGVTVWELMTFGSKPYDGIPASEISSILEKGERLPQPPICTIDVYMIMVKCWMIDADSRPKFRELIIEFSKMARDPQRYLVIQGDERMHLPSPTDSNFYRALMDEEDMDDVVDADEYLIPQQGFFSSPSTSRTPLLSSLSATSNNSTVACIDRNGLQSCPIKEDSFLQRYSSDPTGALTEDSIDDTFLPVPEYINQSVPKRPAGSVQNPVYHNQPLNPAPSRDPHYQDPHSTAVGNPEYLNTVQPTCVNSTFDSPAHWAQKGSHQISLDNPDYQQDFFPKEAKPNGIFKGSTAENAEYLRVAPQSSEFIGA
Chain of Protein cereblon/Epidermal growth factor receptor (Q96SW2 whole entry, stated change not applied): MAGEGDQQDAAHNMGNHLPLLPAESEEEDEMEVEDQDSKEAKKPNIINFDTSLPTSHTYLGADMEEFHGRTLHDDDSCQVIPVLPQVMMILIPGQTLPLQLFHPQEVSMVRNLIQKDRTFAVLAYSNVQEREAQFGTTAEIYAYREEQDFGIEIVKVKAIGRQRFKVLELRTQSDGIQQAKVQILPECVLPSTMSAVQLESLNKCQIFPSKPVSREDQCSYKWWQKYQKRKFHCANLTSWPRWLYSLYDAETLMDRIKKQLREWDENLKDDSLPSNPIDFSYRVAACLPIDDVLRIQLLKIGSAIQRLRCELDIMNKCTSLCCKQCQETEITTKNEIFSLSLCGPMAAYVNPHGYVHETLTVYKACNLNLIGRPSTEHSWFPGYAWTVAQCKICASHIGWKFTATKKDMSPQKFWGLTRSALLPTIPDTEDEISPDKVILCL

Consider `O=C1CCC(N2C(=O)c3cccc(NCCOCCOCCOCCOCCN4CCN(c5ccc(-c6ccc7c(c6)C(=O)N(C(C(=O)Nc6nccs6)c6ccccc6)C7)cc5)CC4)c3C2=O)C(=O)N1` (centres undefined), for which the pEC50 was more than 6.30.
With `O=C1CCC(N2C(=O)c3cccc(NCCOCCOCCOCCN4CCN(c5ccc(-c6ccc7c(c6)C(=O)N(C(C(=O)Nc6nccs6)c6ccccc6)C7)cn5)CC4)c3C2=O)C(=O)N1` (centres undefined) the figure was more than 6.30.
With `O=C1CCC(N2C(=O)c3cccc(NCCOCCOCCOCCC(=O)N4CCN(c5ccc(-c6ccc7c(c6)C(=O)N(C(C(=O)Nc6nccs6)c6ccccc6)C7)cc5)CC4)c3C2=O)C(=O)N1` (centres undefined), the pEC50 is more than 6.30.
To `O=C1CCC(N2C(=O)c3cccc(NCCOCCOCCOCCN4CCN(c5ccc(-c6ccc7c(c6)C(=O)N(C(C(=O)Nc6nccs6)c6ccccc6)C7)cc5)CC4)c3C2=O)C(=O)N1` (centres undefined) belongs more than 6.30.
